In patent US8883180B2 (priority 2007, dated 2014):
Where two headings read alike, the source gives them in different places.

Key:
Assay type in all cases: in vivo
[1] = tested on: rice blast (Pyricularia oryzae); details: 20 ppm, inoculated 1 day after spraying, evaluated 5 days after inoculation
[2] = tested on: larvae of the mustard beetle (Phaedon cochleariae); assay: Phaedon cochleariae - test (sprayed cabbage leaves); details: for Efficacy in % after 3d: Table C-1, mortality; for Efficacy in % after 4d: Table C-2, mortality; for Efficacy in % after 6d: Table C-3, mortality
Protocol: (§1) Solvent: 7 parts by weight of dimethylformamide
(§2) Emulsifier: 2 parts by weight of alkylaryl polyglycolether
(§3) To produce a suitable preparation of active compound, 1 part by weight of active compound is mixed with the stated amount of solvent and emulsifier, and the concentrate is diluted with emulsifier-containing water to the desired concentration.
Cabbage leaves (Brassica oleracea) are treated by being sprayed with the preparation of the active compound at the desired concentration and are infested with larvae of the mustard beetle (Phaedon cochleariae) as long as the leaves are still moist.
After the specified period of time, the mortality in % is determined. 100% means that all the beetle larvae have been killed; 0% means that none of the beetle larvae have been killed.

[3] = tested on: rice blast (Pyricularia oryzae); details: 100 ppm, inoculated 5 days after spraying, evaluated 7 days after inoculation
[4] = tested on: Blumeria graminis f. sp. hordei; assay: Blumeria test (barley)/SAR 5d; details: 1000 ppm, evaluated 7 days after inoculation
[5] = tested on: larvae of the Brown plant hopper (Nilaparvata lugens); assay: Nilaparvata lugens - test (sprayed rice plants); details: mortality
Protocol: as §1, §2, §3
Rice plants (Oryza sativa) are treated by being sprayed with the preparation of the active compound at the desired concentration and are infested with larvae of the Brown plant hopper (Nilaparvata lugens) as long as the leaves are still moist.
After the specified period of time, the mortality in % is determined. 100% means that all the hopper larvae have been killed; 0% means that none of the hopper larvae have been killed.

[6] = tested on: larvae of the fall army worm (Spodoptera frugiperda); assay: Spodoptera frugiperda - test (sprayed cabbage leaves); details: mortality
Protocol: as §1, §2, §3
Cabbage leaves (Brassica oleracea) are treated by being sprayed into the preparation of the active compound of the desired concentration and are infested with larvae of the fall army worm (Spodoptera frugiperda) as long as the leaves are still moist.
After the specified period of time, the mortality in % is determined. 100% means that all the caterpillars have been killed; 0% means that none of the caterpillars have been killed.

Structure (SMILES) | Efficacy in % [1] | Efficacy in % [3] | Efficacy in % ([4]; Table A-1, 1st leaf) | Efficacy in % ([4]; Table A-2, printed 1st leaf) | Efficacy in % after 4d ([2]; 4 ppm) | Efficacy in % after 3d ([5]; 4 ppm) | further results
O=[N+]([O-])NC1=NCCN1Cc1ccc(Cl)nc1 [Imidacloprid, imidacloprid] | 0% | 0% |  |  |  |  | Efficacy in % after 3d ([2]; 4 ppm): 0%
N#Cc1ccccc1NC(=O)c1snc(Cl)c1Cl [Isotianil, 3,4-dichloro-N-(2-cyanophenyl)-5-isothiazolecarboxamide] | 35% | 43% | 44% | 44% |  |  | Efficacy in % after 3d ([5]; 200 ppm): 0%; Efficacy in % after 6d ([6]; 200 ppm): 0%; Efficacy in % after 3d ([2]; 200 ppm): 0%; Efficacy in % after 4d ([2]; 200 ppm): 15%; Efficacy in % after 6d ([2]; 200 ppm): 0%
N#C/N=C1\SCCN1Cc1ccc(Cl)nc1 [Thiacloprid, thiacloprid] |  |  |  |  | 45% |  | 
CNC(=O)c1cc(Cl)cc(C)c1NC(=O)c1cc(Br)nn1-c1ncccc1Cl [Chlorantraniliprole, chlorantraniliprole] | 0% | 0% | 11% | 0% | 70% | 0% | Efficacy in % after 6d ([6]; 0.032 ppm): 15%; Efficacy in % after 3d ([2]; 0.16 ppm): 0%; Efficacy in % after 4d ([2]; 0.8 ppm): 45%; Efficacy in % after 6d ([2]; 0.8 ppm): 15%
C/C(=N\C#N)N(C)Cc1ccc(Cl)nc1 [Acetamiprid, acetamiprid] |  |  |  |  |  |  | Efficacy in % after 6d ([6]; 0.16 ppm): 15%
CN/C(=N\[N+](=O)[O-])NCc1cnc(Cl)s1 [Clothianidin, clothianidin] |  |  |  |  |  | 90% | Efficacy in % after 4d ([2]; 20 ppm): 70%; Efficacy in % after 6d ([2]; 4 ppm): 90%
